Assay results from the NIST ThermoML archive (doi:10.1021/acs.jced.5b00804).

Details: 101.33 kPa, Liquid; for viscosity: Capillary tube (Ostwald / Ubbelohde) method; for mass density: Pycnometric method

NCCN [ethane-1,2-diamine]
Details	mass density [kg/m3]	viscosity [mPa·s]
303.15 K	890.3	1.26
308.15 K	885.9	1.18
313.15 K	881.7	1.03
318.15 K	876.9	0.938
323.15 K	871.3	0.905
